Source: patent US8618283B2, “Ligand libraries for screening GPCRs” (Cambridge Enterprise Limited, priority 2005, dated 2013)

System: ET-A and/or ET-B receptor
Experiment: contraction of human aortic rings in organ culture (agonist assay)
Conditions: increasing concentrations 0.01 nM to 100 nM, at top concentration, 37° C.
Experimental: Endothelin-1 is a peptide which signals through the ET-A and/or ET-B receptor to cause vasoconstriction. To determine whether compounds of the invention are agonists at ET-A and/or ET-B, rings of human aorta (obtained from transplant donor hearts) can be put into organ culture. Rings are then exposed either to increasing concentrations of Endothelin-1 (from 0.01 nM to 100 nM), or to increasing concentrations of the test compound(s) (from about 0.1 nM to about 10 mM) at 37° C., raising the concentration of the appropriate agent approximately every 5 minutes. Throughout the experiment the contraction of the aortic ring is measured by a strain gauge designed and commercially available for such a purpose. […] If the compound of the invention is an agonist at the endothelin receptors, then the force exerted on the strain guage will also be higher (at least at certain concentrations) than prior to addition of the test compound.

## Endothelin-1
  force exerted on the strain gauge versus prior to addition: significantly higher
